ChEMBL document CHEMBL1135340, “Efficient liquid-phase synthesis of 2'-hydroxychalcones” (Bioorg Med Chem Lett, 2002)

Tested on: MCF7
Assay: Cytotoxic concentration against MCF-7 cells was determined
Format: functional, cell-based
Settings: Homo sapiens

Structure (SMILES): O=C(/C=C/c1ccc(Br)cc1)c1ccccc1O
- IC50: 12.3 µM
